Experimental findings from US20250092058A1 (priority 2018, published 2025) are described below.

Where two headings read alike, the source gives them in different places.

Series [1] has as its system PDX14244 and PDX27454. The series can be described thus: Pancreatic PDX14244 (left flank) and colorectal PDX27454 (right flank) in the same SCID mice. It counts as in vivo. How it is done: Human xenograft tumors used.
The vehicle is the same aqueous suspension without FL7N-1. Experimental SCID mice were subcutaneously implanted with 30-40 mg individual PDX tumors (isolated from maintenance mice) at the flank area (left side for PDX14244, and right side for PDX27454) of SCID mice. […] The animal model of PDX tumors was orally treated weekly for 3 times as shown with black arrows. […] Thus, FL7N-1 may be a priority candidate to be developed for treatment of children rare disease retinoblastoma.
The vehicle is the same think aqueous suspension without drug. Experimental SCID mice were subcutaneously implanted with 30-40 mg individual PDX tumors (isolated from maintenance mice) at the flank area (left side for PDX14244, and right side for PDX27454) of SCID mice. […] The animal model of PDX tumors was orally treated weekly for 3 times as shown with black arrows.
The vehicle is the same think aqueous suspension without drug. Experimental SCID mice were subcutaneously implanted with 30-40 mg individual PDX tumors (isolated from maintenance mice) at the flank area (left side for PDX14244, and right side for PDX27454) of SCID mice. […] The animal model of PDX tumors was orally treated weekly for 4 times (one cycle/course, as shown with black arrows).
The vehicle is the same think aqueous suspension without drug. Experimental SCID mice were subcutaneously implanted with 30-40 mg individual PDX tumors (isolated from maintenance mice) at the flank area (left side for PDX14244, and right side for PDX27454) of SCID mice. […] The animal model of PDX tumors was orally treated weekly for 3 times in two doses due to drug limitation then (as shown with black arrows).

Series [2] has as its system T24. Kind of series: MTT assay T24. It is filed as cell-based. As to conditions: Table 5 lower part; T24 bladder cancer. The procedure: (§1) MTT assays. […] Viable cells (2500 cells per well) were plated in each well in 96-well plates. After an overnight incubation, cells were treated with and without relevant drugs alone and in combination, respectively, at various concentrations and incubated for 72 hours. MTT, a colorimetric substrate, was added to a final concentration of 0.4 mg/ml to each well. Cells in 96-well plates were further incubated in a 5% CO2 incubator at 37° C. for 4 hours, and then the medium was aspirated. The MTT metabolic product formazan was solubilized by adding 200 ul of DMSO to each well. Absorbance in the relevant wells was measured at 570 nm using an Ultra Microplate Reader (Bio-Tek Instruments). Each experiment was performed at least in triplicate. IC50/EC50 values were calculated from a series of drug dose ranges for each analyzed compound, using GraphPad Prism 6 (GraphPad Software, Inc., La Jolla, CA).
(§2) The inhibition of cell growth and viability in various cancer cell types were tested using MTT assay for references.
In general terms: Tetrazolium assays rely on reduction of a dye to a coloured formazan, in cell work by metabolically active cells.

Series [3] deals with RT4. The series can be described thus: MTT assay RT4. It is filed as cell-based. As to conditions: Table 5 lower part; RT4 bladder cancer. How it is done:
as §1, §2

In series [4] the test system is UMUC-3. How it is done: as §1, §2
In series [5] the test system is UOK151. The procedure: as §1, §2
The subject of series [6] is UOK262. The procedure: as §1, §2
Series [7] has as its system H1376. The procedure:
as §1, §2

The test system of series [8] is HCT116. Kind of series: MTT assay HCT116. It is filed as cell-based, human. The note with it: Table 8. The procedure:
(§3) MTT assays. […] Each experiment was performed at least in triplicate.

Series [9] has as its system HT-3 retinoblastoma xenograft tumors. The note with it: for antitumor activity and toxicity profile / overall antitumor activity versus toxicity ranking: oral; for antitumor activity and toxicity profile: one time, 3-4 doses; for overall antitumor activity versus toxicity ranking: multiple doses, weekly×4. The procedure:
Human HT-3 retinoblastoma xenograft tumors were initially established by subcutaneously injection of 2-5×10^6 HT-3 cells in a volume of 100-200 μL medium. Mouse models of HT-3 xenografts were set up by subcutaneously inoculating 30-40 mg tumor tissue on the flank of SCID mice. Treatment with individual compounds was initiated 7-14 days after the transplanted tumors reached 100-200 mm^3 (designated day 0). […] The individual compounds were formulated in an organic solvent-free with HPPCD as drug carriers in 2% HPMC (hydroxypropyl methylcellulose) and 1% PG (propylene glycol) in saline (a thick aqueous suspension) for oral administration. The vehicle is the same thick aqueous suspension without drug. A. FL7s-3-treated xenograft tumor curve profile (left panel) and body weight profile (right panel) over the experimental period. B. FL7s-4-treated xenograft tumor curve profile (left panel) and body weight profile (right panel) over the experimental period. C. FL7s-7-treated xenograft tumor curve profile (left panel) and body weight profile (right panel) over the experimental period.
Human xenograft tumors used. In this invention disclose, human SW620 (colorectal), HT29 (colorectal) and HT-3 (retinoblastoma) cancer cell line-established xenograft tumors were used. Human tumor cell line-derived xenograft tumors are initially established by subcutaneously injecting 2-5×10^6 cultured cancer cells in a volume of 100-150 p L medium into the flank area of severe combined immunodeficiency (SCID) mice. The derived tumors are then passed a couple of generations in mice by transplanting 30-50 mg non-necrotic tumor mass via a trocar for experiments or maintenance. […] PDX tumors were originally established on severe Combined Immunodeficiency (SCID) mice from pancreatic and colorectal cancer patient tumor tissues obtained from metastatic sites of the disease in the clinic.
To these three novel compounds, we performed in vivo animal model studies to evaluate their antitumor activity and toxicity using the HT-3 retinoblastoma xenograft tumor models. In this experiment, we still took advantage of the newly developed formulation for oral administration of compounds.

The subject of series [10] is Wer 127. The series can be described thus: MTT assay Wer 127. It counts as cell-based. As to conditions: Table 7. How it is done:
as §3

Series [11] deals with HT-3. Kind of series: MTT assay HT-3. It counts as cell-based, human. The note with it: Table 7; HT-3. How it is done: as §1, §2
The test system of series [12] is Y79. Kind of series: MTT assay Y79. It counts as cell-based. As to conditions: Table 7. How it is done: as §3
The test system of series [13] is A2008. The series can be described thus: MTT assay A2008. It counts as cell-based. The note with it: Table 9; A2008. The procedure:
as §1, §2

The subject of series [14] is A549. The series can be described thus: MTT assay A549. As to conditions: Table 9. It counts as cell-based, human. The procedure:
as §3

[15] abbreviates: oral one time, 5, 10 and 15 mg/kg.

`CC[C@@]1(O)C(=O)OCc2c1cc1n(c2=O)Cc2c-1nc1cc3c(cc1c2-c1ccc(OC)cc1)OCO3` [7Q 9]: the “antitumor activity, 7Q-series (1)” value in [1] (oral weekly for 4 times) was “much higher antitumor activity than the other compounds in this 7Q-series (1)”. In addition, the IC50/EC50 is 0.32 nM in series [2]; 3.37 nM in series [3]; 0.35 nM in [4] (Table 5 lower part, UMUC-3 bladder cancer); 50 nM in series [5] (Table 5 lower part, UOK151 kidney cancer); 32 nM in [6] (Table 5 lower part, UOK262 kidney cancer); over 500 nM in [7] (Table 5 lower part, H1376 bladder cancer).
In the case of `CC[C@@]1(O)C(=O)OCc2c1cc1n(c2=O)Cc2c-1nc1cc3c(cc1c2CCN1CCOCC1)OCO3` [Compound 7N1, 20 (S)-7-morpholinylethyl-10,11-methylenedioxy-camptothecin], the antitumor activity result in [1] (oral weekly for 3 times) is on record as “very good”; in series [9] (setting [15]) it was “exceptional antitumor activity in all three doses used”. In addition, the IC50/EC50 in series [8] was 11.6 nM; in series [4] (Table 8, UMUC-3), 2.05 nM; in series [5] (Table 8, UOK151), 42.8 nM; in series [6] (Table 8, UOK262), 38 nM; in [7] (Table 8, H1376), over 500 nM. Further, the “toxicity (mouse body weight loss)” value in [9] (setting [15]) is on record as “without showing toxicity”. Besides, the “antitumor activity and toxicity profile” value in [9] was “great antitumor activity and favorable toxicity profiles”.
In series [8], `CC[C@@]1(O)C(=O)OCc2c1cc1n(c2=O)Cc2c-1nc1cc3c(cc1c2CCN1CCCCC1C)OCO3` (stereo partly drawn) [Compound 7N2] gave an IC50/EC50 of 25.62 nM. For the same compound, in series [9], the “antitumor activity and toxicity profile” value was “great antitumor activity and favorable toxicity profiles”.
In the case of `CC[C@@]1(O)C(=O)OCc2c1cc1n(c2=O)Cc2c-1nc1cc3c(cc1c2CCN1CCSCC1)OCO3` [Compound 7N3, 20 (S)-7-thiomorpholinylethyl-10,11-methylenedioxy-camptothecin], the IC50/EC50 in [8] is 171.9 nM. The “antitumor activity and toxicity profile” value in [9] is “great antitumor activity and favorable toxicity profiles”.
Consider `CC[C@@]1(O)C(=O)OCc2c1cc1n(c2=O)Cc2c-1nc1cc3c(cc1c2CCc1ccccc1Cl)OCO3` [FL7-15, 20 (S)-7-(2-chloro-phenethyl)-10,11-methylenedioxy-camptothecin], for which the IC50/EC50 in series [10] is listed as over 500 nM; in series [11] it was 45.81 nM; in series [12], 12.59 nM. Further, the “overall antitumor activity versus toxicity ranking” value in [9] was “not as good as FL7-5 and FL7-14”.
Take `CC[C@@]1(O)C(=O)OCc2c1cc1n(c2=O)Cc2c-1nc1cc3c(cc1c2CCc1ccc(Br)cc1)OCO3` [FL7-17, 20 (S)-7-(4-bromo-phenethyl)-10,11-methylenedioxy-camptothecin]: the IC50/EC50 in series [10] worked out at 2.48 nM; in series [11] it was 6.48 nM; in series [12] it was 1.57 nM. Also, the “overall antitumor activity versus toxicity ranking” value in [9] is “not as good as FL7-5 and FL7-14”.
Consider `CC[C@@]1(O)C(=O)OCc2c1cc1n(c2=O)Cc2c-1nc1cc3c(cc1c2/C=C/c1ccc(F)cc1)OCO3` [FL7s-3], for which the IC50/EC50 is reported as 40.69 nM in [10], 1.68 nM in [11] and 0.61 nM in [12]. Further, in series [9], the “overall antitumor activity versus toxicity ranking” value was “top two candidates”.
Turning to `CC[C@@]1(O)C(=O)OCc2c1cc1n(c2=O)Cc2c-1nc1cc3c(cc1c2CCc1cccc(F)c1)OCO3` [FL7s-7], the IC50/EC50 in [10] was 4.76 nM; in series [11], 2.22 nM; in series [12], 0.29 nM. In addition, the “overall antitumor activity versus toxicity ranking” value in [9] is “top two candidates”.
As for `CC[C@@]1(O)C(=O)OCc2c1cc1n(c2=O)Cc2c-1nc1cc3c(cc1c2-c1ccc(F)c(F)c1)OCO3` [HX6], the “antitumor activity and toxicity, Hx-series” value in [1] (oral weekly for 3 times) was “much higher antitumor activity with favorable toxicity”. The IC50/EC50 is 4.6 nM in series [5] (Table 10, UOK151) and 4.9 nM in series [6] (Table 10, UOK262).
As for `CC[C@@]1(O)C(=O)OCc2c1cc1n(c2=O)Cc2c-1nc1cc3c(cc1c2-c1ccncc1)OCO3` [W-b1, 20 (S)-7-(pyridyl-4-)-FL118 (10,11-methylenedioxy-camptothecin)], the IC50/EC50 worked out at 24.4 nM in series [13] and 73.4 nM in series [14].
The like results for `CC[C@@]1(O)C(=O)OCc2c1cc1n(c2=O)Cc2c-1nc1cc3c(cc1c2-c1ccsc1)OCO3` [W-b4] were, in that order, 31.9 nM and 1.99 nM.
With `CC[C@@]1(O)C(=O)OCc2c1cc1n(c2=O)Cc2c-1nc1cc3c(cc1c2-c1cnn(C)c1)OCO3` [W-b5], the IC50/EC50 in series [13] turned out to be 17.5 nM; in series [14], 2.29 nM.
With `CC[C@@]1(O)C(=O)OCc2c1cc1n(c2=O)Cc2c-1nc1cc3c(cc1c2-c1ccco1)OCO3` [W-b7], the IC50/EC50 in [13] amounted to 0.19 nM; in series [14], 0.39 nM.
The like results for `CC[C@@]1(O)C(=O)OCc2c1cc1n(c2=O)Cc2c-1nc1cc3c(cc1c2-c1ccc(CO)cc1)OCO3` [W-b9] were, in that order, 3.49 nM and 1.28 nM.
As for `CC[C@@]1(O)C(=O)OCc2c1cc1n(c2=O)Cc2c-1nc1cc3c(cc1c2-c1cc(C(F)(F)F)cc(C(F)(F)F)c1)OCO3` [W-b10/Hx7], the “antitumor activity and toxicity, Hx-series” value in [1] (oral weekly for 3 times) is on record as “much higher antitumor activity with favorable toxicity”. Besides, the IC50/EC50 in [13] is given as 7.31 nM; in [14], 5.29 nM; in series [5] (Table 10, UOK151), over 500 nM; in series [6] (Table 10, UOK262), 33.4 nM.
